Results reported in patent US8263601B2, “Deuterium substituted xanthine derivatives” (CoNCERT Pharmaceuticals, Inc., priority 2009, dated 2012).

Legend:
[1] = set-up: species or system beagle dogs; conditions: dog, in vivo, po
Procedure: Example 34a was repeated with additional monitoring of the pentoxifylline and Compound 409 metabolites. In this experiment Compound 409 and pentoxifylline were dissolved separately in saline to a concentration of 4.4 and 4 mg/mL respectively. A 1:1 (v/v) mixture of the two solutions was prepared to yield a solution having a final concentration of 2.2 mg/mL of Compound 409 and 2 mg/mL pentoxifylline. Post-dosing data analysis included adjustments to account for the 10% difference in dosing concentration between compound 409 and pentoxifylline.
Four beagle dogs (2-3 years of age, and weighed 5 to 8 kg) were fasted overnight and then orally dosed via gavage with 2.75 mg/kg Compound 409 and 2.5 mg/kg pentoxifylline using the mixture described above. Blood samples (approximately 1 mL) were collected via femoral vein at 0 min (pre-dose), 5 min, 15 min, 30 min, 45 min, 1 hr, 1.5 hr, 2 hr, 3 hr, 4 hr, and 6 hr post-dose. Blood was stored on ice prior to centrifugation to obtain plasma samples. Centrifugation took place within 15 minutes of blood collection to harvest plasma (maximum volume). The plasma was decanted immediately and frozen/stored at −20° C. until analysis.
Plasma samples were analyzed by LC-MS/MS for the presence of the administered compound and its corresponding M1 metabolite:
The results from one of the four dogs (Dog H, FIG. 1b) were inconsistent with that of the other three. […] It was concluded that this dog was most likely improperly gavaged and that the compounds were probably administered through the trachea, rather than into the GI tract as would have been desired. Accordingly, the data from this dog was excluded from the analyses.

[2] = Stability of compounds in rat whole blood (Example 35); format: in vitro ADME; conditions: 5 μM, 37° C., 2 hours, FIG. 3
Procedure: This study was performed to evaluate the stability of the title compounds in rat whole blood. Because the ketone (or keto-compound; either pentoxifylline or 409) and its corresponding M-1 alcohol metabolite interconvert, levels of these components were measured after either the keto-compound was added to the blood or the M-1 was added. In other words, in some tests the keto-compound was the starting test compound and in other tests an M-1 metabolite was the starting test compound.
Fresh rat whole blood was obtained from ViviSource Laboratories, Waltham, Mass. Stock solutions (7.5 millimolar (mM)) of test compounds were prepared in dimethyl sulfoxide (DMSO). The 7.5 mM stock solutions were diluted to 500 micromolar (μM) in acetonitrile (ACN). To 990 microliters (μL) of blood pre-warmed to 37° C. for 7 minutes was added 10 μl, of 500 μM test compound to a final concentration of 5 μM. The test compounds were pentoxifylline, (S)-M1 metabolite of pentoxifylline, (R)-M1 metabolite of pentoxifylline, Compound 409, Compound 435(S), and Compound 435(R). The latter two test compounds are deuterated (S)-M1 and (R)-M1 metabolites, respectively, of Compound 409. The reaction mixture was incubated at 37° C. Aliquots (50 μL) were removed at 0 min, 5 min, 15 min, 30 min, 1 hour and 2 hours following the addition of test compound and added to 96-well plates containing 150 μL of ice cold acetonitrile with an internal standard to stop the reaction. The plates were stored at −20° C. for 20 minutes after which 100 μL of 50% acetonitrile/water was added to the wells of the plate prior to centrifugation to pellet precipitated proteins. A 200-μL aliquot of each supernatant was transferred to another 96-well plate and analyzed by LC-MS/MS using an Applied Bio-systems API 4000 mass spectrometer for amounts of the administered compound and its specific metabolite listed in Table 11 below.
The results of this study are depicted in FIGS. 2 and 3.

Structure (SMILES): [2H]c1nc2c(c(=O)n(CCCC([2H])([2H])C(O)C([2H])([2H])[2H])c(=O)n2C)n1C([2H])([2H])[2H] (racemic) [Compound 419, (±)-8-d1-1-(4,4,6,6,6-d5-5-Hydroxyhexyl)-3-methyl-7-(methyl-d3)-1H-purine-2,6(3H,7H)-dione]
- Overall systemic exposure to M1 metabolite compared to M1 following dosing of pentoxifylline [1]: greater

Structure (SMILES): C[C@@H](O)CCCCn1c(=O)c2c(ncn2C)n(C)c1=O [(R)-M1, reference compound]
- Keto-compound (pentoxifylline or Compound 409) formed from M-1 alcohol [2]: No metabolism of (R)-M1 to pentoxifylline was detected

Structure (SMILES): [2H]c1nc2c(c(=O)n(CCCC([2H])([2H])[C@]([2H])(O)C([2H])([2H])[2H])c(=O)n2C)n1C([2H])([2H])[2H] [Compound 435(R), (R)-8-d1-1-(4,4,5,6,6,6-d6-5-Hydroxyhexyl)-3-methyl-7-(methyl-d3)-1H-purine-2,6(3H,7H)-dione]
- Keto-compound (pentoxifylline or Compound 409) formed from M-1 alcohol [2]: not detected
